Values quoted from earlier work as cited in patent EP4628546A1, “CYANINE DIMERS FOR PHOTOTHERMAL TREATMENT OF CANCER GUIDED BY FLUORESCENCE/PHOTOACOUSTIC IMAGING” (Centre National de la Recherche Scientifique, priority 2024, dated 2025).

Conditions: IR 780 in EtOH, reference value

## CCCN1/C(=C/C=C2\CCCC(/C=C/C3=[N+](CCC)c4ccccc4C3(C)C)=C2Cl)C(C)(C)c2ccccc21.[I-] [IR 780]
  Φfluo,ref: 0.08
